Experimental data taken from patent US20050245399A1, “Pyrazole derivatives as herbicidal compositions containing them” (ISHIHARA SANGYO KAISHA, LTD., priority 2004, published 2005).

How the values were obtained:
Format in all cases: in vivo
[1] = system: prickly sida (Sida spinosa L.), SIDSP; test: Test Example 2 post-emergence (foliage treatment) herbicidal activity, SIDSP; conditions: 63 g a.i./ha
Method in brief: (§1)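 Each species was evaluated for growth suppression by eye, 0% matching untreated and 100% meaning death, some 20 to 23 days after a single post-emergence foliar treatment applied in 500 L/ha of water carrying 0.1% (v/v) agricultural spreader.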

[2] = system: green foxtail (Setaria viridis L.): SETVI; test: Test Example 1 pre-emergence herbicidal activity, SETVI; conditions: visually observed 20th to 23rd day after application
Method in brief: (§2)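 Read-out: visual growth control (%, 0–100, 100 = complete kill) assessed 20 to 23 days post-treatment. Compound was applied pre-emergence by small sprayer, one day after sowing into upland soil pots, in 500 L/ha water.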

[3] = system: barnyardgrass (Echinochloa crus-galli L.), ECHCG; test: Test Example 2 post-emergence (foliage treatment) herbicidal activity, ECHCG; conditions: 63 g a.i./ha
Method in brief: (§3)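 Post-emergence, upland soil pots; leaf stage at spray: ECHCG 1.1-2.1 / DIGSA 1.0-2.0 / AMARE 0.1-1.5 / ORYSA 1.0-2. WP or EC formulation, set active ingredient rate, 500 L/ha water + 0.1% v/v spreader. Visual rating at d20-23, % control 0-100.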

[4] = system: rice (Oryza sativa L.: ORYSA); test: Test Example 3 water application herbicidal activity (paddy), transplanted rice ORYSA; conditions: 63 g a.i./ha, water application 4th day after transplantation of 2 leaf stage rice, visually observed 21st day after application; 0 = untreated control, 100 = complete kill
Description: (§4) Paddy field soil was put into a 1/1,000,000 ha pot and seeds of barnyardgrass (Echinochiloa oryzicola: ECHOR) and japanese bulrush (Scirpus juncoides: SCPJO) were sown and slightly covered with soil. Then the pot was left to stand still in a greenhouse in a state where the depth of flooding water was from 0.5 to 1 cm, and one day later, tubers of japanese ribbon wapato (Sagittaria pygmaea: SA GPY) were planted. Thereafter, the depth of flooding water was maintained at a level of from 3 to 4 cm, and when barnyardgrass and japanese bulrush reached a 0.5 leaf stage, an aqueous diluted solution of a wettable powder or emulsifiable concentrate having the compound of the present invention formulated in accordance with a usual formulation method, was uniformly applied under submerged condition by a pipette so that the dose of the active ingredient would be at a predetermined level. On the other hand, paddy filed soil was put into a 1/1,000,000 ha pot and puddled and leveled, and the depth of flooding water was from 3 to 4 cm. One day later, rice (Oryza sativa L.: ORYSA) of 2 leaf stage was transplanted in a depth of 3 cm. On the 4th day after the transplantation, the compound of the present invention was applied in the same manner as described above. On the 14th day after the application of the herbicide, the growth of barnyardgrass, japanese burlush and japanese ribbon wapato was visually observed and on the 21st day after the application of the herbicide, the growth of rice was visually observed, and the herbicidal effects were evaluated by growth controlling degrees (%) ranging from 0 (equivalent to the untreated control) to 100 (complete kill), whereby the results shown in Table 6, were obtained. Compound Nos. in Table 6 correspond to Compound Nos. in Table 1 and 2 given hereinbefore.

[5] = system: barnyardgrass (Echinochloa crus-galli L.): ECHCG; test: Test Example 1 pre-emergence herbicidal activity, ECHCG; conditions: visually observed 20th to 23rd day after application
Method in brief: as §2

[6] = system: crabgrass (Digitaria sanguinalis L.): DIGSA; test: Test Example 1 pre-emergence herbicidal activity, DIGSA; conditions: visually observed 20th to 23rd day after application
Method in brief: as §2

[7] = system: soybean (Glycine max Merr.), GLXMA; test: Test Example 2 post-emergence (foliage treatment) herbicidal activity, GLXMA; conditions: 63 g a.i./ha
Method in brief: as §1

[8] = system: wheat (Triticum aestivum L.): TRZAX; test: Test Example 1 pre-emergence herbicidal activity, TRZAX; conditions: visually observed 20th to 23rd day after application
Method in brief: as §2

[9] = system: japanese ribbon wapato (Sagittaria pygmaea: SA GPY); test: Test Example 3 water application herbicidal activity (paddy), SAGPY; conditions: 63 g a.i./ha, water application under submerged condition, tubers planted, visually observed 14th day after application; 0 = untreated control, 100 = complete kill
Description: as §4

[10] = system: rice (Oryza sativa L.), ORYSA; test: Test Example 2 post-emergence (foliage treatment) herbicidal activity, ORYSA; conditions: 63 g a.i./ha
Method in brief: as §3

[11] = system: velvetleaf (Abutilon theophrasti): ABUTH; test: Test Example 1 pre-emergence herbicidal activity, ABUTH; conditions: visually observed 20th to 23rd day after application
Method in brief: as §2

[12] = system: prickly sida (Sida spinosa L.): SEDSP; test: Test Example 1 pre-emergence herbicidal activity, SIDSP; conditions: visually observed 20th to 23rd day after application
Method in brief: as §2

[13] = system: green foxtail (Setaria viridis L.), SETVI; test: Test Example 2 post-emergence (foliage treatment) herbicidal activity, SETVI; conditions: 63 g a.i./ha
Method in brief: as §1

[14] = system: japanese bulrush (Scirpus juncoides: SCPJO); test: Test Example 3 water application herbicidal activity (paddy), SCPJO; conditions: 63 g a.i./ha, water application under submerged condition at 0.5 leaf stage, visually observed 14th day after application; 0 = untreated control, 100 = complete kill
Description: as §4

[15] = system: redroot pigweed (Amaranthus retroflexus L.): AMARE; test: Test Example 1 pre-emergence herbicidal activity, AMARE; conditions: visually observed 20th to 23rd day after application
Method in brief: as §2

[16] = system: velvetleaf (Abutilon theophrasti), ABUTH; test: Test Example 2 post-emergence (foliage treatment) herbicidal activity, ABUTH; conditions: 63 g a.i./ha
Method in brief: as §1

[17] = system: crabgrass (Digitaria sanguinalis L.), DIGSA; test: Test Example 2 post-emergence (foliage treatment) herbicidal activity, DIGSA; conditions: 63 g a.i./ha
Method in brief: as §3

[18] = system: corn (Zea mays L.): ZEAMX; test: Test Example 1 pre-emergence herbicidal activity, ZEAMX; conditions: visually observed 20th to 23rd day after application
Method in brief: as §2

[19] = system: barnyardgrass (Echinochiloa oryzicola: ECHOR); test: Test Example 3 water application herbicidal activity (paddy), ECHOR; conditions: 63 g a.i./ha, water application under submerged condition at 0.5 leaf stage, visually observed 14th day after application; 0 = untreated control, 100 = complete kill
Description: as §4

[20] = system: corn (Zea mays L.), ZEAMX; test: Test Example 2 post-emergence (foliage treatment) herbicidal activity, ZEAMX; conditions: 63 g a.i./ha
Method in brief: as §1

[21] = system: soybean (Glycine max Merr.): GLXMA; test: Test Example 1 pre-emergence herbicidal activity, GLXMA; conditions: visually observed 20th to 23rd day after application
Method in brief: as §2

[22] = system: wheat (Triticum aestivum L.), TRZAX; test: Test Example 2 post-emergence (foliage treatment) herbicidal activity, TRZAX; conditions: 63 g a.i./ha
Method in brief: as §1

[23] = system: rice (Oryza sativa L.): ORYSA; test: Test Example 1 pre-emergence herbicidal activity, ORYSA; conditions: visually observed 20th to 23rd day after application
Method in brief: as §2

Compound | growth controlling degree, SIDSP [1] [%] | growth controlling degree, ECHCO [3] [%] | growth controlling degrees (%) ORYSA [4] [%] | growth controlling degree, GLXMA [7] [%] | growth controlling degrees (%) SAGPY [9] [%] | growth controlling degree, ORYSA [10] [%] | growth controlling degree, SETVI [13] [%] | growth controlling degrees (%) SCPJO [14] [%] | growth controlling degree, ABUTH [16] [%] | growth controlling degree, DIGSP [17] [%] | growth controlling degrees (%) ECHOR [19] [%] | growth controlling degree, ZEAMX [20] [%] | growth controlling degree, TRZAX [22] [%] | other results
[3-chloro-6-[4-chloro-5-(difluoromethoxy)-1-methyl-1H-pyrazol-3-yl]-5-fluoro-2-methoxyphenyl]2-propynyl-formamide [Compound 1-7] | 100 | 50 | 20 | 50 | 0 | 40 | 70 | 60 | 100 | 10 | 95 | 40 | 10 | Pre-emergence Herbicidal Activity SETVI (growth controlling degree) ([2]; Rate 125 g a.i./ha): 95%; Pre-emergence Herbicidal Activity ECHCG (growth controlling degree) ([5]; Rate 125 g a.i./ha): 70%; Pre-emergence Herbicidal Activity DIGSP (growth controlling degree) ([6]; Rate 125 g a.i./ha): 100%; Pre-emergence Herbicidal Activity TRZAX (growth controlling degree) ([8]; Rate 125 g a.i./ha): 20%; Pre-emergence Herbicidal Activity ABUTH (growth controlling degree) ([11]; Rate 125 g a.i./ha): 80%; Pre-emergence Herbicidal Activity SIDSP (growth controlling degree) ([12]; Rate 125 g a.i./ha): 90%; Pre-emergence Herbicidal Activity AMARE (growth controlling degree) ([15]; Rate 125 g a.i./ha): 100%; Pre-emergence Herbicidal Activity ZEAMX (growth controlling degree) ([18]; Rate 125 g a.i./ha): 0%; Pre-emergence Herbicidal Activity GLXMA (growth controlling degree) ([21]; Rate 125 g a.i./ha): 10%; Pre-emergence Herbicidal Activity ORYSA (growth controlling degree) ([23]; Rate 125 g a.i./ha): 20%
Cn1nc(-c2c(F)cc(Cl)c(OC(F)F)c2NS(C)(=O)=O)c(Cl)c1OC(F)F [Compound 1-84] | 70 | 20 | 30 | 50 | 95 | 10 | 10 | 90 | 80 | 0 | 60 | 20 | 0 | Pre-emergence Herbicidal Activity SETVI (growth controlling degree) ([2]; Rate 63 g a.i./ha): 20%; Pre-emergence Herbicidal Activity ECHCG (growth controlling degree) ([5]; Rate 63 g a.i./ha): 0%; Pre-emergence Herbicidal Activity DIGSP (growth controlling degree) ([6]; Rate 63 g a.i./ha): 50%; Pre-emergence Herbicidal Activity TRZAX (growth controlling degree) ([8]; Rate 63 g a.i./ha): 0%; Pre-emergence Herbicidal Activity ABUTH (growth controlling degree) ([11]; Rate 63 g a.i./ha): 0%; Pre-emergence Herbicidal Activity SIDSP (growth controlling degree) ([12]; Rate 63 g a.i./ha): 0%; Pre-emergence Herbicidal Activity AMARE (growth controlling degree) ([15]; Rate 63 g a.i./ha): 70%; Pre-emergence Herbicidal Activity ZEAMX (growth controlling degree) ([18]; Rate 63 g a.i./ha): 0%; Pre-emergence Herbicidal Activity GLXMA (growth controlling degree) ([21]; Rate 63 g a.i./ha): 0%; Pre-emergence Herbicidal Activity ORYSA (growth controlling degree) ([23]; Rate 63 g a.i./ha): 10%
